Results taken from ChEMBL document CHEMBL4811319, “Optimization of 1,4-bis(arylsulfonamido)naphthalene-N,N'-diacetic acids as inhibitors of Keap1-Nrf2 protein-protein interaction to suppress neuroinflammation” (Bioorg Med Chem, 2021).
Calls of active or inactive are those of the source. The calls are words filed in the database; no cut-off is given here.

Experiments:
[1] = target: T1, Nuclear factor erythroid 2-related factor 2 (Mus musculus) (UniProt Q60795); test: Activation of Nrf2 in mouse BV-2 cells assessed as upregulation of HO-1 protein expression at 20 uM measured after 24 hrs by Western blot analysis; format: cell-based; conditions: filed as activator
T1 sequence (whole entry): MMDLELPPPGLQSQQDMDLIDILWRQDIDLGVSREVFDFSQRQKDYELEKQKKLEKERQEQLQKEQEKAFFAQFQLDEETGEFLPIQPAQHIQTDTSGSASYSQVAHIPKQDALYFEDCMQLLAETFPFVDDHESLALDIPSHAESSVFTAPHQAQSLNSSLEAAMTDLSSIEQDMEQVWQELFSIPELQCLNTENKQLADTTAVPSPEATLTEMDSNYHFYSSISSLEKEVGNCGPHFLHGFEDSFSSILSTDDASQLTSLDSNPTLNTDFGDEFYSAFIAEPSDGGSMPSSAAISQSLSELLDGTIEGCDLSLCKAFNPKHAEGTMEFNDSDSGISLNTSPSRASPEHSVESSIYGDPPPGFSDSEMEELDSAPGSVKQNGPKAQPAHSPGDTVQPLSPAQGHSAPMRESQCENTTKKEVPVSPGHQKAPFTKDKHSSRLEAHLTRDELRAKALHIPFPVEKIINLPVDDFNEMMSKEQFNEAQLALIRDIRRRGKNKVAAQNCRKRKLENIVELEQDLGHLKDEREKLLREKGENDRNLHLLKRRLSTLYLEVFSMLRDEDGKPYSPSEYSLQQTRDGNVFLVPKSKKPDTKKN

[2] = target: T1, Nuclear factor erythroid 2-related factor 2 (Mus musculus); test: Activation of Nrf2 in mouse BV-2 cells assessed as upregulation of NQO-1 protein expression at 20 uM measured after 24 hrs by Western blot analysis; format: cell-based; conditions: filed as activator
[3] = target: T2, Keap1/Nrf2 (Homo sapiens, UniProt Q14145); test: Inhibition of recombinant human KEAP1 Kelch domain (321 to 609 residues) expressed in Escherichia coli BL21 (DE3)pLysS cells interaction with FITC-9mer Nrf2 (unknown origin) incubated for 30 mins under shaking condition by fluorescence polarization assay
T2 sequence (Q16236 whole entry, the tested form may be a part): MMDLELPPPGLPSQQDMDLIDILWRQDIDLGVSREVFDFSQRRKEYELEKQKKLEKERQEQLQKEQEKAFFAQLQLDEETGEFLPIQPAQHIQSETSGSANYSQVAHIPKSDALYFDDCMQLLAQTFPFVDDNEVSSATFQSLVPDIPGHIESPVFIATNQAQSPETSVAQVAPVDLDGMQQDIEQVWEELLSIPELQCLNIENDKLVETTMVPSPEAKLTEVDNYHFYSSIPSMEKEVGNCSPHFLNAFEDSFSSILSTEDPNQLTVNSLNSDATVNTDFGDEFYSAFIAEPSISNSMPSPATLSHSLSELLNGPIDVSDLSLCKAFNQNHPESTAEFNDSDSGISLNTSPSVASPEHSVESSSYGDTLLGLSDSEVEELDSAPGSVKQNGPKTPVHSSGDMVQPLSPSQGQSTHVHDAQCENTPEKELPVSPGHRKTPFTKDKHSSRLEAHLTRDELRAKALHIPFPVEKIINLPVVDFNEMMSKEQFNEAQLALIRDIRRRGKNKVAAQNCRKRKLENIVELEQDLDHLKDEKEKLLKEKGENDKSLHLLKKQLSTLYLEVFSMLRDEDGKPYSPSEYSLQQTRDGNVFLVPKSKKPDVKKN
T2 sequence (Q14145 whole entry, the tested form may be a part): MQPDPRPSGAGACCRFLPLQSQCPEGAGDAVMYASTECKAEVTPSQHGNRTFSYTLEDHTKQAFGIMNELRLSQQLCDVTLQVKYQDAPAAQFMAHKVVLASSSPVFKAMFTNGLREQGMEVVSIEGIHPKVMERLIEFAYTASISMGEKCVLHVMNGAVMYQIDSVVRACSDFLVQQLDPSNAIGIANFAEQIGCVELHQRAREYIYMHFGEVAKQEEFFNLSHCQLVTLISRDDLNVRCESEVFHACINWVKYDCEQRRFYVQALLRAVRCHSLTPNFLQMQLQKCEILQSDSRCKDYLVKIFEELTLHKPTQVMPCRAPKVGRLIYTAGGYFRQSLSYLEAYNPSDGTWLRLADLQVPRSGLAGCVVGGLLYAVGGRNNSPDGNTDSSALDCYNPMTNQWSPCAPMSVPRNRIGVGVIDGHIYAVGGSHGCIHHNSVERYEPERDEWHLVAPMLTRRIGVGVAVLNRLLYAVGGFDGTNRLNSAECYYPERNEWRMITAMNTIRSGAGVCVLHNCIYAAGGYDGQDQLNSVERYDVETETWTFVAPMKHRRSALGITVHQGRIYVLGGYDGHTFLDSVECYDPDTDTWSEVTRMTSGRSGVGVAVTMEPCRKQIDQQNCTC

[4] = target: T2, Keap1/Nrf2; test: Inhibition of recombinant human KEAP1 Kelch domain (321 to 609 residues) expressed in Escherichia coli BL21 (DE3)pLysS cells interaction with FITC-9mer Nrf2 (unknown origin) incubated for 30 mins under shaking condition by TR-FRET assay
[5] = target: Keap1/Nrf2 (Homo sapiens) (UniProt Q16236+Q14145); test: Inhibition of Keap1-Nrf2 protein-protein interaction in human HepG2-ARE-C8 cells assessed as Nrf2 activation mediated ARE-driven luciferase activity by measuring fold change at 10 uM measured after 24 hrs by luciferase reporter gene assay; format: cell-based
Chain of Keap1/Nrf2 (Homo sapiens) (Q14145 whole entry, looked up): as the sequence (Q14145 whole entry, the tested form may be a part) above
Chain of Keap1/Nrf2 (Homo sapiens) (Q16236 whole entry, looked up): as the sequence (Q16236 whole entry, the tested form may be a part) above

[6] = test system: HepG2; test: Cytotoxicity against human HepG2 cells up to 50 uM by Alamar blue assay; format: cell-based
[7] = test system: BV-2; test: Cytotoxicity against mouse BV-2 cells up to 50 uM by Alamar blue assay; format: cell-based
[8] = target: T1, Nuclear factor erythroid 2-related factor 2 (Mus musculus); test: Activation of Nrf2 in mouse BV-2 cells assessed as increase in HO-1 mRNA level at 10 uM measured within 6 hrs by qRT-PCR analysis relative to negative control; format: cell-based; conditions: time hrs <6
[9] = target: T1, Nuclear factor erythroid 2-related factor 2 (Mus musculus); test: Activation of Nrf2 in mouse BV-2 cells assessed as increase in NQO-1 mRNA level at 10 uM measured after 6 hrs by qRT-PCR analysis relative to control; format: cell-based; conditions: filed as activator
[10] = target: T1, Nuclear factor erythroid 2-related factor 2 (Mus musculus); test: Activation of Nrf2 in mouse BV-2 cells assessed as increase in HO-1 mRNA level at 1 to 10 uM measured up to 24 hrs by qRT-PCR analysis relative to control; format: cell-based
[11] = test system: BV-2; test: Antiinflammatory activity in mouse BV-2 cells assessed as suppression of LPS-induced IL-6 mRNA expression at 10 uM measured up to 24 hrs by qRT-PCR analysis; format: functional, cell-based
[12] = target: T1, Nuclear factor erythroid 2-related factor 2 (Mus musculus); test: Activation of Nrf2 in mouse BV-2 cells assessed as upregulation of HO-1 protein expression measured after 24 hrs by Western blot analysis; format: cell-based; conditions: filed as activator
[13] = target: T1, Nuclear factor erythroid 2-related factor 2 (Mus musculus); test: Activation of Nrf2 in mouse BV-2 cells assessed as increase in translocation of Nrf2 into nucleus at 10 uM measured after 6 to 24 hrs by […]; format: cell-based; conditions: filed as activator, time 6-24 hrs
[14] = target: T1, Nuclear factor erythroid 2-related factor 2 (Mus musculus); test: Activation of Nrf2 in mouse BV-2 cells assessed as upregulation of NQO-1 protein expression at 10 uM measured after 24 hrs by Western blot analysis relative to control; format: cell-based; conditions: filed as activator
[15] = test system: BV-2; test: Upregulation of NQO-1 in mouse BV-2 cells transfected with Nrf2 shRNA at 10 uM measured after 24 hrs by qPCR analysis; format: functional, cell-based
[16] = target: T1, Nuclear factor erythroid 2-related factor 2 (Mus musculus); test: Activation of Nrf2 in mouse BV-2 cells assessed as increase in DNA binding activity at 10 uM measured after 6 hrs by spectrophotometric analysis relative to control; format: cell-based; conditions: filed as activator
[17] = test system: BV-2; test: Antiinflammatory activity in mouse BV-2 cells assessed as suppression of LPS-induced […] protein expression at 10 uM measured up to 24 hrs by ELISA; format: functional, cell-based
[18] = target: T1, Nuclear factor erythroid 2-related factor 2 (Mus musculus); test: Activation of Nrf2 in mouse BV-2 cells assessed as increase in NQO-1 mRNA level measured after 6 to 24 hrs by qRT-PCR analysis; format: cell-based; conditions: filed as activator, dose 1-10 µM, time 6-24 hrs
[19] = test system: BV-2; test: Antiinflammatory activity in mouse BV-2 cells assessed as suppression of LPS-induced IL-6 protein expression at 10 uM measured up to 24 hrs by ELISA; format: functional, cell-based
[20] = test system: BV-2; test: Antiinflammatory activity in mouse BV-2 cells assessed as suppression of LPS-induced TNF-alpha protein expression at 10 uM measured up to 24 hrs by ELISA; format: functional, cell-based
[21] = test system: BV-2; test: Antiinflammatory activity in mouse BV-2 cells assessed as suppression of LPS-induced […] mRNA expression at 10 uM measured up to 24 hrs by qRT-PCR analysis; format: functional, cell-based
[22] = target: T1, Nuclear factor erythroid 2-related factor 2 (Mus musculus); test: Activation of Nrf2 in mouse BV-2 cells assessed as increase in NQO-1 mRNA level at 1 to 10 uM by qRT-PCR analysis; format: cell-based; conditions: filed as activator, dose 1-10 µM, time 6-24 hrs
[23] = target: T1, Nuclear factor erythroid 2-related factor 2 (Mus musculus); test: Activation of Nrf2 in mouse BV-2 cells assessed as upregulation of HO-1 protein expression at 10 uM measured after 24 hrs by Western blot analysis relative to control; format: cell-based; conditions: filed as activator
[24] = test system: BV-2; test: Upregulation of HO-1 in mouse BV-2 cells transfected with Nrf2 shRNA at 10 uM measured after 24 hrs by qPCR analysis; format: functional, cell-based
[25] = target: T1, Nuclear factor erythroid 2-related factor 2 (Mus musculus); test: Activation of Nrf2 in mouse BV-2 cells assessed as increase in DNA binding activity at 10 uM measured after 24 hrs by spectrophotometric analysis relative to control; format: cell-based; conditions: filed as activator
[26] = target: T1, Nuclear factor erythroid 2-related factor 2 (Mus musculus); test: Activation of Nrf2 in mouse BV-2 cells assessed as upregulation of NQO-1 protein expression measured after 24 hrs by Western blot analysis; format: cell-based; conditions: filed as activator
[27] = target: T1, Nuclear factor erythroid 2-related factor 2 (Mus musculus); test: Activation of Nrf2 in mouse BV-2 cells assessed as increase in NQO-1 mRNA level at 10 uM measured after 24 hrs by qRT-PCR analysis relative to control; format: cell-based; conditions: filed as activator
[28] = test system: BV-2; test: Antiinflammatory activity in mouse BV-2 cells assessed as suppression of LPS-induced TNF-alpha mRNA expression at 10 uM measured up to 24 hrs by qRT-PCR analysis; format: functional, cell-based
[29] = target: T1, Nuclear factor erythroid 2-related factor 2 (Mus musculus); test: Activation of Nrf2 in mouse BV-2 cells assessed as increase in HO-1 mRNA level at 10 uM measured after 24 hrs by qRT-PCR analysis relative to control; format: cell-based; conditions: filed as activator

With `CN(C)C=O` the Activity [1] was “Active” and the Activity [2] was “Active”.

In the case of `O=C(O)CN(c1ccc(N(CC(=O)O)S(=O)(=O)c2ccc(N3C(=O)c4ccccc4C3=O)cc2)c2ccccc12)S(=O)(=O)c1ccc(N2C(=O)c3ccccc3C2=O)cc1`, the IC50 [3] is reported as 0.082 µM and the IC50 [4] is reported as 0.0115 µM.

With `O=C(O)CN(c1ccc(N(CC(=O)O)S(=O)(=O)c2ccc3c(c2)OCO3)c2ccccc12)S(=O)(=O)c1ccc2c(c1)OCO2` the fold change (FC) [5] was over 2, the Activity [6] was “Non-Toxic” and the IC50 [3] was 0.149 µM. For the same compound, the Activity [7] was “Non-Toxic” and the fold change (FC) [8] was under 2.

In the case of `O=S(=O)(c1ccc(C(F)(F)F)cc1)N(Cc1nnn[nH]1)c1ccc(N(Cc2nnn[nH]2)S(=O)(=O)c2ccc(C(F)(F)F)cc2)c2ccccc12`, the IC50 [3] is reported as 0.302 µM.

For `O=C(O)CN(c1ccc(N(CC(=O)O)S(=O)(=O)c2ccc3c(c2)CCCO3)c2ccccc12)S(=O)(=O)c1ccc2c(c1)CCCO2`, the Activity [6] was “Non-Toxic”, the IC50 [3] was 0.146 µM and the fold change (FC) [9] was 4. The Activity [7] was “Non-Toxic” and the fold change (FC) [8] was under 2.

With `O=C(O)CN(c1ccc(N(CC(=O)O)S(=O)(=O)c2cc3c(cc2Cl)OCCO3)c2ccccc12)S(=O)(=O)c1cc2c(cc1Cl)OCCO2` the fold change (FC) [10] was under 2, the Activity [11] was “Active” and the Activity [12] was “Dose-Dependent Effect”. The Activity [13] was “Active”, the fold change (FC) [5] was over 2 and the Activity [6] was “Non-Toxic”. For the same compound, the IC50 [3] was 0.144 µM, the fold change (FC) [9] was 3 and the fold change (FC) [14] was 3. For the same compound, the Activity [15] was “inactive”, the fold change (FC) [16] was 3 and the Activity [17] was “Active”. The Activity [7] was “Non-Toxic”, the Activity [18] was “Dose-Dependent Effect” and the fold change (FC) [8] was under 2. The Activity [19] was “Active”, the Activity [20] was “Active” and the Activity [21] was “Active”. The Activity [22] was “Tde”, the fold change (FC) [23] was 2 and the Activity [24] was “inactive”. The fold change (FC) [25] was 3, the Activity [26] was “Dose-Dependent Effect” and the IC50 [4] was 0.0089 µM. The fold change (FC) [27] was 18 and the Activity [28] was “Active”.

Compound `O=C(O)CN(c1ccc(N(CC(=O)O)S(=O)(=O)c2ccc(Br)cc2)c2ccccc12)S(=O)(=O)c1ccc(Br)cc1` has an IC50 [3] of 0.235 µM.

`CS(=O)(=O)Nc1ccc(S(=O)(=O)N(CC(=O)O)c2ccc(N(CC(=O)O)S(=O)(=O)c3ccc(NS(C)(=O)=O)cc3)c3ccccc23)cc1` showed an IC50 [3] of 0.194 µM.

For `COc1ccc(S(=O)(=O)N(Cc2nnn[nH]2)c2ccc(N(Cc3nnn[nH]3)S(=O)(=O)c3ccc(OC)cc3)c3ccccc23)cc1`, the IC50 [3] was 0.0967 µM and the IC50 [4] was 0.0108 µM.

`O=C(O)CN(c1ccc(N(CC(=O)O)S(=O)(=O)c2ccc(NC(=O)C(F)(F)F)cc2)c2ccccc12)S(=O)(=O)c1ccc(NC(=O)C(F)(F)F)cc1` gave an IC50 [3] of 0.126 µM.

For `O=S(=O)(c1ccc2c(c1)OCCO2)N(Cc1nnn[nH]1)c1ccc(N(Cc2nnn[nH]2)S(=O)(=O)c2ccc3c(c2)OCCO3)c2ccccc12`, the Activity [6] was “Non-Toxic”, the IC50 [3] was 0.0935 µM and the Activity [7] was “Non-Toxic”. It also gave a fold change (FC) [8] of under 2 and an IC50 [4] of 0.0072 µM.

For `COc1ccc(S(=O)(=O)N(CC(=O)O)c2ccc(N(CC(=O)O)S(=O)(=O)c3ccc(OC)cc3Br)c3ccccc23)c(Br)c1`, the IC50 [3] was 0.184 µM.

With `O=C(O)CN(c1ccc(N(CC(=O)O)S(=O)(=O)c2ccc3c(c2)CCO3)c2ccccc12)S(=O)(=O)c1ccc2c(c1)CCO2` the Activity [6] was “Non-Toxic”, the IC50 [3] was 0.164 µM and the Activity [7] was “Non-Toxic”. The fold change (FC) [8] was under 2 and the fold change (FC) [29] was 4.

`O=C(O)CN(c1ccc(N(CC(=O)O)S(=O)(=O)c2ccc(C(F)(F)F)cc2)c2ccccc12)S(=O)(=O)c1ccc(C(F)(F)F)cc1` was tested, and the IC50 [3] was 0.384 µM.

In the case of `O=C(O)CN(c1ccc(N(CC(=O)O)S(=O)(=O)c2ccc3c(c2)OCCO3)c2ccccc12)S(=O)(=O)c1ccc2c(c1)OCCO2`, the Activity [6] is reported as “Non-Toxic”, the IC50 [3] is reported as 0.12 µM and the Activity [7] is reported as “Non-Toxic”. The fold change (FC) [8] was under 2 and the IC50 [4] was 0.0313 µM.
